Molecules are shown by their SMILES. Like-named read-outs stand apart in the source and are kept apart here.

The values below come from patent US9492471B2, “Methods of treating a disease or disorder associated with Bruton'S Tyrosine Kinase” (Celgene Avilomics Research, Inc., priority 2013, dated 2016).

Common to all, as to assay: HotSpot kinase profiling
Holding throughout (format): biochemical

Test [1] concerns the target T1, PKCa (Homo sapiens, UniProt P17252).
T1 construct: purchased Reaction Biology Corp
In short, it runs like this:
(§1)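 Radio-isotope P81 filtration format. Substrate + required cofactors in reaction buffer, kinase added, 2 h RT. Stop, wash with 0.1% phosphoric acid, detect. % inhibition vs DMSO; mean of duplicates where repeated.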

The target in test [2] is T2, RSK2 (Homo sapiens, UniProt P51812).
T2 construct: purchased Reaction Biology Corp
T2 sequence (P51812 whole entry): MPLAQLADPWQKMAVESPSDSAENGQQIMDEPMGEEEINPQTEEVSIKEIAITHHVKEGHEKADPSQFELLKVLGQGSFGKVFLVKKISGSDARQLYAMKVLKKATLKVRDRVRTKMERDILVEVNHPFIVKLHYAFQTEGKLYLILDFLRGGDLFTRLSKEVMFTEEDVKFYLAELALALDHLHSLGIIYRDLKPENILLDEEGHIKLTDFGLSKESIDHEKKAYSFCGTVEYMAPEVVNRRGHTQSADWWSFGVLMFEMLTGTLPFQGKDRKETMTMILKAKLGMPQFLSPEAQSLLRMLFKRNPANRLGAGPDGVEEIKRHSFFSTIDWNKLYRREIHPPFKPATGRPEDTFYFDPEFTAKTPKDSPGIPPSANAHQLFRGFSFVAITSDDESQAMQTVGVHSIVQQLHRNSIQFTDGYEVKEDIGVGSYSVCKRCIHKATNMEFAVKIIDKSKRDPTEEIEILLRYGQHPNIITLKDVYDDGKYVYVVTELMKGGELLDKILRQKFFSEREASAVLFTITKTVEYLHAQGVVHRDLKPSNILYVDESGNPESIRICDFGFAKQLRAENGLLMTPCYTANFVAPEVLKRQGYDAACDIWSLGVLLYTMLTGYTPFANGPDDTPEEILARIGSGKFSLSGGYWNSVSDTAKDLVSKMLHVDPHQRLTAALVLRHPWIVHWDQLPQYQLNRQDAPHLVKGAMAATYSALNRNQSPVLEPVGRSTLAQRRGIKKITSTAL
In short, it runs like this:
as §1

Test [3] addresses T3, TSSK2 (Homo sapiens, UniProt Q96PF2).
T3 construct: purchased Reaction Biology Corp
T3 sequence (Q96PF2 1-358): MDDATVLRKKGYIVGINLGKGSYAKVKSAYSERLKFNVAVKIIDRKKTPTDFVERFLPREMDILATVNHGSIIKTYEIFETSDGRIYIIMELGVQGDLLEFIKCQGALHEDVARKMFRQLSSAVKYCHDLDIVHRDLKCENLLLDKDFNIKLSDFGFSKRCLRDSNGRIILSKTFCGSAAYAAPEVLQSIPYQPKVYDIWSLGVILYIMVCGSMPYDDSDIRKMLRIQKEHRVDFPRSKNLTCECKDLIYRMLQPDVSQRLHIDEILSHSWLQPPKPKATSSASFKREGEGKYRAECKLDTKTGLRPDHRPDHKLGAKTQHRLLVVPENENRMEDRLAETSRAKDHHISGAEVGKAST
In short, it runs like this: as §1

Test [4] has as its target T4, MNK2 (Homo sapiens, UniProt Q9HBH9).
T4 construct: purchased Reaction Biology Corp
In short, it runs like this:
as §1

Test [5] has as its target T5, JAK2 (Homo sapiens, UniProt O60674).
T5 construct: purchased Reaction Biology Corp
A digest of the protocol:
as §1

Test [6] addresses T6, EPHB2 (Homo sapiens, UniProt P29323).
T6 construct: purchased Reaction Biology Corp
T6 sequence (P29323 19-1055): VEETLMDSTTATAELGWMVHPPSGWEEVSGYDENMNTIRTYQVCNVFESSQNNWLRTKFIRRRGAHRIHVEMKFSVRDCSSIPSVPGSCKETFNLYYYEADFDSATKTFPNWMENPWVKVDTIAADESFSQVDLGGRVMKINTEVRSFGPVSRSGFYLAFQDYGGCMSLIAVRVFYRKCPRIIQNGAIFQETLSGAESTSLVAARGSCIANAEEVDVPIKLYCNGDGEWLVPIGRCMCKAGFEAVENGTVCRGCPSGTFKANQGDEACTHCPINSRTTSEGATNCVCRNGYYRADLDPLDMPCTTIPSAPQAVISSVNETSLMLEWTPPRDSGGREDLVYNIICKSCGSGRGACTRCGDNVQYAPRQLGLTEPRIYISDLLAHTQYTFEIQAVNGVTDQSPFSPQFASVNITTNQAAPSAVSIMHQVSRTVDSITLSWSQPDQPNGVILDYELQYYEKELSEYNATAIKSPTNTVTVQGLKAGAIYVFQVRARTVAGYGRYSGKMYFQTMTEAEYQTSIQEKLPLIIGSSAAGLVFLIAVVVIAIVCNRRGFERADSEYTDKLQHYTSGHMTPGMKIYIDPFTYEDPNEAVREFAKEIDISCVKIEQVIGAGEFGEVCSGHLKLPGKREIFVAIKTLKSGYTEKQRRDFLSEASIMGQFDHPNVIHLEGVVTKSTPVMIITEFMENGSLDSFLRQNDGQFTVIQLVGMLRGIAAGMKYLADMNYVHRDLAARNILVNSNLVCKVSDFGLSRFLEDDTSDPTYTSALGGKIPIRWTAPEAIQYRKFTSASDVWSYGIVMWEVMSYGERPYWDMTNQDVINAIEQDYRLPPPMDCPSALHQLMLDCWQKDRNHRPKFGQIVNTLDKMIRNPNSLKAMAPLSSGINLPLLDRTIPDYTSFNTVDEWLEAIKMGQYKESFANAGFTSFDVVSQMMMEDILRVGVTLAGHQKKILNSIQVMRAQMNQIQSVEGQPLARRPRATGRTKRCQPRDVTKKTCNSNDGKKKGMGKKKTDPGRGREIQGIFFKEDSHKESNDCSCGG
A digest of the protocol:
as §1

The target of test [7] is T7, CDK1/cyclin B (Homo sapiens, UniProt P06493).
T7 construct: purchased Reaction Biology Corp
T7 sequence (P06493 whole entry): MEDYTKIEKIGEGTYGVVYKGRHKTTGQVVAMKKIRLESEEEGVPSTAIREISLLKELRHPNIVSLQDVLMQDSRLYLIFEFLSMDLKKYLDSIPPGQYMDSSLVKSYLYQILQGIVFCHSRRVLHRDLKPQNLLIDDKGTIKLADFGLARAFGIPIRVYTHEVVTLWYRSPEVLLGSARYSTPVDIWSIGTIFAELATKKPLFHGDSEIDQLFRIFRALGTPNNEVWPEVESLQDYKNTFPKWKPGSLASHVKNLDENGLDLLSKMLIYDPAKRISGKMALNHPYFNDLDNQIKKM
T7 sequence (P14635 whole entry partner): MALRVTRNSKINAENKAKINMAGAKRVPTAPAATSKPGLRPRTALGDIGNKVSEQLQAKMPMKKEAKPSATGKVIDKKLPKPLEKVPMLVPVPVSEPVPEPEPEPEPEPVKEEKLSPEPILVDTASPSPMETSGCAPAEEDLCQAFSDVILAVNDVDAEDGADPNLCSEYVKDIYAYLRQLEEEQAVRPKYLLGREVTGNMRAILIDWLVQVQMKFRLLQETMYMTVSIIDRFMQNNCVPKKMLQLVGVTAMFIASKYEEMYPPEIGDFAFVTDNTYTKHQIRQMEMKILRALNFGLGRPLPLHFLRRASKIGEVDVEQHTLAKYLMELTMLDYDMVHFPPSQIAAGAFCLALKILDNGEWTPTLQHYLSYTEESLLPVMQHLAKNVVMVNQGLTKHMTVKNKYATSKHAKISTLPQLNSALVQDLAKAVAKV
A digest of the protocol: as §1

Test [8] addresses T8, NEK6 (Homo sapiens, UniProt Q9HC98).
T8 construct: purchased Reaction Biology Corp
In short, it runs like this:
as §1

Setting [9] is: read-out: % Enzyme Activity (relative to DMSO controls) Run 1.
[10] abbreviates: read-out: % Enzyme Activity (relative to DMSO controls) Run 2.

T4 sequence (Q9HBH9 whole entry): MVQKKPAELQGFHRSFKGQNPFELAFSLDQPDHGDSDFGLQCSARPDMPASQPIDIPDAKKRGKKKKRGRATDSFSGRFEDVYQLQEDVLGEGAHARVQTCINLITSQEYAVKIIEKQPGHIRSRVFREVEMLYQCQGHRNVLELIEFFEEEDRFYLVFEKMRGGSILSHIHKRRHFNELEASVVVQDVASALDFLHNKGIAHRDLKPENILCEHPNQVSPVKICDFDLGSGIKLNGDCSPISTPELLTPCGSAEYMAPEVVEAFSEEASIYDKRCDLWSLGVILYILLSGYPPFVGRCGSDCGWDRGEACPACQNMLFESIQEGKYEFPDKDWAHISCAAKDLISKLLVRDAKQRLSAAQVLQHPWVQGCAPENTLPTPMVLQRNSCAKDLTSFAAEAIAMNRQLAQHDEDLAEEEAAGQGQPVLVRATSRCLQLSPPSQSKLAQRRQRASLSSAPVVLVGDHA
T5 sequence (O60674 whole entry): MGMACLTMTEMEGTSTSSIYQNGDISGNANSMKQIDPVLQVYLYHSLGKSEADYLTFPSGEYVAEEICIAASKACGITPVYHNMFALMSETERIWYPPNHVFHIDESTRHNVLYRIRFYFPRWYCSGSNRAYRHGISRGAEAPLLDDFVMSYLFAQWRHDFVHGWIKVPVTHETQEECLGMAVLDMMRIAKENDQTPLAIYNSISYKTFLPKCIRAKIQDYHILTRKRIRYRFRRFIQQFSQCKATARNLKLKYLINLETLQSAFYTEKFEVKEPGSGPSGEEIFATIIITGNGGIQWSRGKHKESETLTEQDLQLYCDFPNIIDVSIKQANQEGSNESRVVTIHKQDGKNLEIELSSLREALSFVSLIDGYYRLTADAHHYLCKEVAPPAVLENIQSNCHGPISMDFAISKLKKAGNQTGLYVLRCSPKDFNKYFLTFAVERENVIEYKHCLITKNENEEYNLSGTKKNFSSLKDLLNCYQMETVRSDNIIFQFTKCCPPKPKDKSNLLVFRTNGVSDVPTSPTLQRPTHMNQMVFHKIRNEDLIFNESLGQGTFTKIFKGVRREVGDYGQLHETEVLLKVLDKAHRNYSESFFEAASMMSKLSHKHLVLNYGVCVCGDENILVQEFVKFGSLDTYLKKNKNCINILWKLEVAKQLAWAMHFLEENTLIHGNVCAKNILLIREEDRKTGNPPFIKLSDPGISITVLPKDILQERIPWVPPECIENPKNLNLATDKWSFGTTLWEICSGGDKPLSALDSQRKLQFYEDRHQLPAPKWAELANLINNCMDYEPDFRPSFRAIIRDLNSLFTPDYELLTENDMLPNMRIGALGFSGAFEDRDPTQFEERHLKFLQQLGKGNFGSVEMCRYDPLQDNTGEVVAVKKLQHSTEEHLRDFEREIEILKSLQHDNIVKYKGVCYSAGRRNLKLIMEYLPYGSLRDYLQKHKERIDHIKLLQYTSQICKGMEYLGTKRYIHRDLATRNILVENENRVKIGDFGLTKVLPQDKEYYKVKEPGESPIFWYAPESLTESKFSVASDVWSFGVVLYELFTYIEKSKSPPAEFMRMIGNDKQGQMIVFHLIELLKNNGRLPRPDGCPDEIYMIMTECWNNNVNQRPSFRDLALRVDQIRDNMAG
T8 sequence (Q9HC98 whole entry): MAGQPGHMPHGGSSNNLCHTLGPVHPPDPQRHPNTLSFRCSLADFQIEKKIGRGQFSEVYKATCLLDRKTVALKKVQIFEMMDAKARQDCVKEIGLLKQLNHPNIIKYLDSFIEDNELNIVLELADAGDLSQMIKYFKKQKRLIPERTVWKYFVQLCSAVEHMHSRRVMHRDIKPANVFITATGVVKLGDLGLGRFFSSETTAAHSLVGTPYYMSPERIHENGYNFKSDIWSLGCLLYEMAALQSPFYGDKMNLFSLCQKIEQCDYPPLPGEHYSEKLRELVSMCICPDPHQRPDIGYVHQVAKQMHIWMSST

For orientation: inhibition means the change of the read-out against control, counted positive when it falls. `C=CC(=O)Nc1cccc(Nc2nc(Nc3ccc(OCCOC)c(F)c3)ncc2F)c1` [Compound 2]: the inhibition at 3 µM is 11.4% in test [1]; 16.6% in test [2]; 3.36% in test [3]; 16.9% in test [4]; -11.6% in test [5]; -5.45% in test [6]. In addition, the inhibition at 3 µM in test [7] was 12.9%; in test [8] it was -5.69%. The remaining activity at 3 µM worked out at 88.4% in test [1] (setting [9]); 88.8% in test [1] (setting [10]); 82.6% in test [2] (setting [9]); 84.3% in test [2] (setting [10]); 97% in test [3] (setting [9]); 96.3% in test [3] (setting [10]). Moreover, the remaining activity at 3 µM was determined as 83% in test [4] (setting [9]); 83.2% in test [4] (setting [10]); 109% in test [5] (setting [9]); 115% in test [5] (setting [10]); 104% in test [6] (setting [9]); 107% in test [6] (setting [10]). Also, the remaining activity at 3 µM turned out to be 87.2% in test [7] (setting [9]), 87% in test [7] (setting [10]), 106% in test [8] (setting [9]) and 105% in test [8] (setting [10]).
